Experimental findings from PMC6179045, “Design, synthesis and biological evaluation of tricyclic pyrazolo[1,5-c][1,3]benzoxazin-5(5H)-one scaffolds as selective BuChE inhibitors” (Journal of Enzyme Inhibition and Medicinal Chemistry, 2018) are described below.

The structures appear in SMILES notation.

Data set [1] has as its system differentiated PC12 cells. In words: Neuroprotective effect against H2O2-induced damage in differentiated PC12 cells. To be noted: Rattus norvegicus, PC-12, 25 µM compound 3 h before H2O2 (300 µM), 24 h, MTT, p < .05 vs. H2O2 alone, read-out: cell viability (neuroprotective activity). Type of data set: cell-based. The protocol: The differentiated PC12 cells and oxidative agent H2O2 were used as in vitro model to assess neuronal differentiation and neurobiochemical and neurobiological properties[39]^,[44]. Differentiated PC12 cells were incubated with different concentrations of compounds 6a and 6g for 3 h before treatment with H2O2 (300 µM). Cell viability was measured after 24 h using MTT method. Briefly, 20 µL of 0.5 mg/ml MTT reagent was added into the cells and incubated for 4 h. After 4 h, cell culture was removed and then 150 µl DMSO was added to dissolve the formazan. OD570 value was measured at 570 nm on the Biotek Synergy HTX Multi-Mode reader. Results were adjusted by OD570 value in the blank.
. The differentiated PC12 cells were pretreated with three concentrations (10, 25 and 50 µM) for 3 h, before treatment with H2O2 (300 µM), and cell viability was measured after 24 h using MTT method. […]. Neuroprotective activity of compounds 6a and 6g […] was evaluated by subjecting PC12 cells to H2O2-induced damage. […]

In data set [2] the target is T1, BuChE from equine serum (eqBuChE) (Equus caballus, UniProt P81908).
T1 construct: BuChE from equine serum (C4290-1KU; Sigma); purchased Sigma C4290-1KU; host or cells: equine serum
The data set is described as follows: BuChE activity assay (modified Ellman's method). Conditions: BuChE from horse serum; mean ± SEM, n = 3. Type of data set: biochemical, equine (horse). The method, then: (§1) Enzymatic activity assays were performed on AChE from electric eel (C3389-500UN; Sigma) and BuChE from equine serum (C4290-1KU; Sigma), according to Ellman’s method with light modification. The experiment was performed in 48-well plates in a final volume of 500 µl. Each well contained 0.036 U/ml of EeAChE or eqBuChE, and 0.1 M pH = 8 phosphate buffer. They were incubated for 20 min at different concentrations of test compound at 37 °C. […] The DTNB produced the yellow anion 5-thio-2-nitrobenzoic acid along with the enzymatic degradation of acetylthiocholine or butyrylthiocholine. The absorbance of each assay was measured at 410 nm after 20 min in a Biotek Synergy HTX Multi-Mode reader. The IC50 values were calculated graphically from inhibition curves (log inhibitor concentration vs percent of inhibition). A control experiment was performed under the same conditions without inhibitor and the blank contained buffer, DMSO, DTNB and substrate.

A short description of data set [3]: Cytotoxicity MTT assay in PC12 cells. Conditions: rat, 1-50 µM, read-out: relative cell viability (cytotoxicity). Type of data set: cell-based. The protocol:
PC12 cells were used to evaluate cell cytotoxicity by methyl thiazolyl tetrazolium (MTT) assay. PC12 cells were cultured in DMEM containing 10% fetal bovine serum, 100 µg/ml streptomycin and 100 units/ml penicillin at 37 °C in a 5% CO2 humidified atmosphere, and inoculated at 1 × 10^4 cells per well in 96-well plate. After cultured for 24 h, the cells were treated with different concentration of compounds in DMEM for 24 h. Then 20 µl of 0.5 mg/ml MTT reagent was added into the cells and incubated for 4 h. After 4 h, cell culture was removed and then 150 µl DMSO was added to dissolve the formazan. The optical density was measured at 570 nm (OD570). Cell viability was calculated from three independent experiments. OD570 of formazan in blank group was set as 100% of viability.
Blank: cultured with fresh medium only.
On the technique in general: Tetrazolium dyes change colour on reduction, which living cells bring about.

The target of the next data set is T2, eqBuChE (Equus caballus, UniProt P81908).
T2 construct: BuChE from equine serum (C4290-1KU; Sigma); purchased Sigma C4290-1KU; host or cells: equine serum
In words: Kinetic study of eqBuChE inhibition (Lineweaver-Burk plots). Type of data set: biochemical, equine (horse). The protocol:
. The kinetic type of enzyme inhibition was obtained through the modified Ellman’s method and Lineweaver–Burk secondary plots. Apparent inhibition constants and kinetic parameters were calculated within the “Enzyme kinetics” module of Prism 5.
The kinetic studies were carried out at three fixed inhibitor concentrations (5, 10 and 20 µM).

Data set [4] is described as follows: Log P assessment (shake flask method, octanol/PBS). It counts as physicochemical. To be noted: octanol/PBS pH 7.4, shake flask, 37 °C. The protocol: Log P, defined as the logarithm of octanol–water partition coefficient, is an important parameter to evaluate lipophilicity of compounds[45]. It can be calculated by determining the concentration of compound in octanol phase and water phase until the partition equilibrium was completed. In this work, log P of title compounds was measured by the shake flask method with slight modification. PBS (pH = 7.4) was used as the water. Both the octanol and the aqueous phase were saturated with each other before use. The assay mixture containing test compounds was shaken at 37 °C. After 24 h, the mixture was centrifuged at 4,000 rpm for 30 min, followed by the measurement with UV spectrophotometer. Experiments were conducted in triplicate and log p values were calculated.

For data set [5], the target named is T3, AChE from electric eel (EeAChE) (Electrophorus electricus, UniProt O42275).
T3 construct: AChE from electric eel (C3389-500UN; Sigma); purchased Sigma C3389-500UN
In words: AChE activity assay (modified Ellman's method). Type of data set: biochemical. Conditions: AChE from electric eel; 20 µM compound; read-out: inhibition % at 20 µM AChE. The protocol:
as §1
(Ellman's reagent forms a yellow product with free thiols.)

T2 sequence (P81908 whole entry): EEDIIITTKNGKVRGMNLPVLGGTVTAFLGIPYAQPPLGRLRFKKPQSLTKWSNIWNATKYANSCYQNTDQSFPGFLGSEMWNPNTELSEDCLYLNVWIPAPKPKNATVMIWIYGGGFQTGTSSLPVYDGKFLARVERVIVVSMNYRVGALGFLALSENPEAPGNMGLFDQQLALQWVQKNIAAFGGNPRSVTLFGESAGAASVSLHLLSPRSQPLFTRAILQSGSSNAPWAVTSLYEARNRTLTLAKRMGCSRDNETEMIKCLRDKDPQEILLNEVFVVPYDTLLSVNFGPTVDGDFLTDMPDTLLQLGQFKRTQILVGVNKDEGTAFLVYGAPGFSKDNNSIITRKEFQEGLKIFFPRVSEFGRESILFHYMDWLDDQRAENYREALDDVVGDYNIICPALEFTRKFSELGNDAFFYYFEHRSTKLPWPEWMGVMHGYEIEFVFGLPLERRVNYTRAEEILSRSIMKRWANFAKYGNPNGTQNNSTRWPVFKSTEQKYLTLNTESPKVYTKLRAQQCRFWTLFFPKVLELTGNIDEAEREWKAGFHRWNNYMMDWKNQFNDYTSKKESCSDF
T1 sequence (P81908 whole entry): as above
T3 sequence (O42275 24-633): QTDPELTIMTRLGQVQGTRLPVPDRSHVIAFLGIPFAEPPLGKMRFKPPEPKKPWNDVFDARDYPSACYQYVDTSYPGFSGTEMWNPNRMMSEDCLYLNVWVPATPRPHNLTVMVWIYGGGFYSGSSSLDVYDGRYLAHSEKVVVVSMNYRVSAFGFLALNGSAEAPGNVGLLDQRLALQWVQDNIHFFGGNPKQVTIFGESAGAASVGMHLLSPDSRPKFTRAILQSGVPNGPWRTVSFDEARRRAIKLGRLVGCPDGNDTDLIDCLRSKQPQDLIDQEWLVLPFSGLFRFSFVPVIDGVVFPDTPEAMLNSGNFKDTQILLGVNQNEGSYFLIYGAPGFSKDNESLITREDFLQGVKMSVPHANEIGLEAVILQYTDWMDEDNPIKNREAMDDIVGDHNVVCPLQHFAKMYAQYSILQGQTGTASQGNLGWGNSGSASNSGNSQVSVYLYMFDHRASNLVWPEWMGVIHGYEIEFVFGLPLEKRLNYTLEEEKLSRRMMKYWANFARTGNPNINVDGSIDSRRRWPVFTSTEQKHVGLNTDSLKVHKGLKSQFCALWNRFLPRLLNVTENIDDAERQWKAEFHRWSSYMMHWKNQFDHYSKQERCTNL

Broadly, the viability is the share of living cells, or the viability signal relative to a control. The term IC50 denotes the concentration at which inhibition is half-maximal. In general, Ki refers to the dissociation constant of the complex between target and ligand, obtained from inhibition or displacement. As usually defined, the logP is the decadic logarithm of the partition coefficient of the neutral form, usually between octanol and water. A word on the inhibition: it is the change of the read-out against control, counted positive when it falls. As for `CC1=NN2C(=O)Oc3ccc(Br)cc3C2C1` (stereo not shown) [Compound 6g, 9-Bromo-2-methyl-1,10b-dihydro-5H-pyrazolo[1,5-c][1,3]benzoxazin-5-one], the viability at 25 µM in data set [1] is > 70%. Further, the IC50 in data set [2] amounted to 1.63 ± 0.34 µM. Further, the viability at 24 h in data set [3] was > 90%. In addition, the “type of BuChE inhibition” value on eqBuChE (Lineweaver-Burk plots) was “mixed-type inhibition”. The inhibition constant Ki at eqBuChE (Lineweaver-Burk secondary plots, inhibitor 5, 10 and 20 µM, read-out: dissociation constant Ki against BuChE) was determined as 3.09 µM. The same molecule had a log partition coefficient (logP) at 24 h in data set [4] of 1.63. Besides, in data set [5], the inhibition at 20 µM was 26 ± 1%.
